Source: patent publication US5139740A, “Polyprenyl compound composition for soft capsules” (Eisai Co., Ltd., priority 1989, dated 1992)

How the values were obtained:
[1] = beagle; 200 mg indometacin farnesyl orally, formulated with the named additive
Experimental: In this test, the crossover method was employed by using six female beagles with the administration of 200 mg of indometacin farnesyl orally to each of them 30 min after breakfast, and sampling their blood at intervals to determine the concentration of indometacin farnesyl in their blood according to HPLC.
Six female beagles were used to determine indometacin farnesyl in the blood by the crossover method.
In the test, each sample was orally administered 30 min after breakfast and 2.5 ml of blood was sampled at intervals to determine the concentration of indometacin farnesyl under the HPLC conditions which will be described below.
The maximum blood concentration, Cmax (μg/ml), and the area under the blood concentration-time curve, AUC (μg hr/ml), 6 h after the administration of each of samples A to F were determined and expressed in terms of relative value with respect to those of a standard formulation.
stationary phase: Nucleosil®10 C18, 4.6 mm diameter×150mm
mobile phase: methanol/water (300/16)

[2] = cited from earlier work; for adverse reactions: clinical / reported in the literature
[3] = Rat lymph absorption test (lymph cannulation method, HPLC); type: in vivo; conditions: SD rats, 12-week old; 5 mg/kg indometacin farnesyl orally, formulated with the named additive
Experimental: In this test, 5 mg/kg of indometacin farnesyl was orally administered to SD rats (12-week old) and indometacin farnesyl in the lymphatic vessels was determined according to HPLC by the lymph cannulation method.

CCCCCCCC/C=C\CCCCCCCC(=O)O [oleic acid]
absorption of indometacin farnesyl (in words) [1]: particularly excellent absorption

COc1ccc2c(c1)c(CC(=O)O)c(C)n2C(=O)c1ccc(Cl)cc1 [indometacin]
adverse reactions [2]: various adverse reactions such as gastrointestinal or renal disturbances

COc1ccc2c(c1)c(CC(=O)OCC=C(C)CC/C=C(\C)CCC=C(C)C)c(C)n2C(=O)c1ccc(Cl)cc1 [indomethacin farnesyl, (6E)-3,7,11-trimethyl-2,6,10-dodecatrienyl 1-(p-chlorobenzoyl)-5-methoxy-2-methyl-lH-indole-3-acetate]
adverse reactions [2]: only slight adverse reactions | antiinflammatory effect ([2]; prior art statement): long-lasting antiinflammatory

CCCCC/C=C\C/C=C\CCCCCCCC(=O)O [linolic acid]
absorption of indometacin farnesyl (in words) [1]: particularly excellent absorption | absorption of indometacin farnesyl into lymph (in words) [3]: particularly excellent absorption
